Results taken from EP4711361A1, “NITROGEN-CONTAINING HETEROCYCLIC COMPOUND AND USE THEREOF” (Jiangsu Deyuan Pharmaceutical Co.,Ltd., priority 2023, dated 2024).
Like-named read-outs stand apart in the source and are kept apart here.

Tests used:
CYP2C19 = biological target: T1, CYP2C19 (Homo sapiens, UniProt P33261); assay: Human liver microsome CYP inhibition assay, CYP2C19; assay type: in vitro ADME
T1 construct: Mixed human liver microsomes (HLM) were purchased from Corning Inc; tissue Corning Inc; host or cells: pooled (mixed) human liver microsomes
T1 sequence (P33261 whole entry): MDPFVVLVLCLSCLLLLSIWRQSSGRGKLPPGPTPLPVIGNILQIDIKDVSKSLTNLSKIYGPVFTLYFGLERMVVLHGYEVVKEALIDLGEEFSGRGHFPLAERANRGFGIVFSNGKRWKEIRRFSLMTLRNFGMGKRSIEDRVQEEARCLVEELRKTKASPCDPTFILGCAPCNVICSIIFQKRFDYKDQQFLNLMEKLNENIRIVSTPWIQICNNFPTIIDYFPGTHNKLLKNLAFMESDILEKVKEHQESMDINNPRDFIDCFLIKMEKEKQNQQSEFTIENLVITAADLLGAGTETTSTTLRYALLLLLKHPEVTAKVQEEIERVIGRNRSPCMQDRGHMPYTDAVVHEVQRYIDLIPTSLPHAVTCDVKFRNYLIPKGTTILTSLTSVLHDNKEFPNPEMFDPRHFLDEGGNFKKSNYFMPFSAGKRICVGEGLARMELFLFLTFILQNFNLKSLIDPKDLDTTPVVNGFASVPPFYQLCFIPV
Description: (§1) Experimental objective: To evaluate the inhibitory activity of the test substance on human liver microsomal cytochrome P450 isoenzymes (CYP1A2, CYP2C9, CYP2C19, CYP2D6, CYP3A4) using a 5-in-1 probe substrate for CYP isoenzymes.
(§2) Mixed human liver microsomes (HLM) were purchased from Corning Inc. (Steuben, New York, USA) and stored at temperatures below -70°C prior to use.
(§3) The working solution of the test substance, which had been diluted to a series of concentrations, was added to an incubation system containing human liver microsomes, probe substrates, and auxiliary factors of the circulatory system. A control containing solvent but no test substance served as an enzyme activity control (100%). The concentration of metabolites produced from probe substrates in the samples was determined using Liquid Chromatography-Tandem Mass Spectrometry (LC-MS/MS) method. Non-linear regression analysis of the average percentage activity of the test substance against its concentration was conducted using SigmaPlot (V.11). The IC50 values were calculated using a three-parameter or four-parameter inverse log equation. Table 10: Cytochrome P450 isoenzyme half maximal inhibitory concentration IC50 (µM)

CYP2D6 = biological target: T2, CYP2D6 (Homo sapiens, UniProt P10635); assay: Human liver microsome CYP inhibition assay, CYP2D6; assay type: in vitro ADME
T2 construct: Mixed human liver microsomes (HLM) were purchased from Corning Inc; tissue Corning Inc; host or cells: pooled (mixed) human liver microsomes
T2 sequence (P10635 whole entry): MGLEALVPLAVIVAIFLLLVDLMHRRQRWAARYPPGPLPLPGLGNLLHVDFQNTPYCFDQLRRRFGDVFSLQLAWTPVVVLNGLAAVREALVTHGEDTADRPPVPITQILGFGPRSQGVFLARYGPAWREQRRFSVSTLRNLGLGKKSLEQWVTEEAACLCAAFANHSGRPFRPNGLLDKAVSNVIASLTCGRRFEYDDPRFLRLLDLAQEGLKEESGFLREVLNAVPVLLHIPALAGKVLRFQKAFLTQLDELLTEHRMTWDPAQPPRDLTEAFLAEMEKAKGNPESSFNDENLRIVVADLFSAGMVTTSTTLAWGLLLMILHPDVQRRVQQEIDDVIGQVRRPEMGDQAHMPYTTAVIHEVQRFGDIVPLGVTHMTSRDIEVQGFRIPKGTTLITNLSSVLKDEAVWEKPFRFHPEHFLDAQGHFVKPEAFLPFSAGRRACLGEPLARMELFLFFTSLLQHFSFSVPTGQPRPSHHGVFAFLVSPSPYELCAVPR
Description: as §1, §2, §3

CYP1A2 = biological target: T3, CYP1A2 (Homo sapiens, UniProt P05177); assay: Human liver microsome CYP inhibition assay, CYP1A2; assay type: in vitro ADME
T3 construct: Mixed human liver microsomes (HLM) were purchased from Corning Inc; tissue Corning Inc; host or cells: pooled (mixed) human liver microsomes
T3 sequence (P05177 whole entry): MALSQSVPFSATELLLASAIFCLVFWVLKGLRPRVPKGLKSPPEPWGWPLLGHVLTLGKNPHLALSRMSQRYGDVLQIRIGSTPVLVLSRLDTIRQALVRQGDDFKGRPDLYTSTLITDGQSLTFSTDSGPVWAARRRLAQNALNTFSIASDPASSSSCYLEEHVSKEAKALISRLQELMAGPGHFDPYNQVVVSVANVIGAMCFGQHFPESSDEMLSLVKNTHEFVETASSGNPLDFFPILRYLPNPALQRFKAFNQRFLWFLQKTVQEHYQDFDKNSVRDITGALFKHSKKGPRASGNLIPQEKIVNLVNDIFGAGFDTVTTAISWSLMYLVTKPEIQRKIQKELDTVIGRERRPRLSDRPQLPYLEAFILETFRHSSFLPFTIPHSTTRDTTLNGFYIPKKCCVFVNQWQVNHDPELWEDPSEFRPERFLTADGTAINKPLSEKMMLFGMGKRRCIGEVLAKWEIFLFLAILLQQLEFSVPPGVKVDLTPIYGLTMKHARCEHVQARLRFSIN
Description: as §1, §2, §3

CYP3A4 = biological target: T4, CYP3A4 (Homo sapiens, UniProt P08684); assay: Human liver microsome CYP inhibition assay, CYP3A4; assay type: in vitro ADME
T4 construct: Mixed human liver microsomes (HLM) were purchased from Corning Inc; tissue Corning Inc; host or cells: pooled (mixed) human liver microsomes
T4 sequence (P08684 whole entry): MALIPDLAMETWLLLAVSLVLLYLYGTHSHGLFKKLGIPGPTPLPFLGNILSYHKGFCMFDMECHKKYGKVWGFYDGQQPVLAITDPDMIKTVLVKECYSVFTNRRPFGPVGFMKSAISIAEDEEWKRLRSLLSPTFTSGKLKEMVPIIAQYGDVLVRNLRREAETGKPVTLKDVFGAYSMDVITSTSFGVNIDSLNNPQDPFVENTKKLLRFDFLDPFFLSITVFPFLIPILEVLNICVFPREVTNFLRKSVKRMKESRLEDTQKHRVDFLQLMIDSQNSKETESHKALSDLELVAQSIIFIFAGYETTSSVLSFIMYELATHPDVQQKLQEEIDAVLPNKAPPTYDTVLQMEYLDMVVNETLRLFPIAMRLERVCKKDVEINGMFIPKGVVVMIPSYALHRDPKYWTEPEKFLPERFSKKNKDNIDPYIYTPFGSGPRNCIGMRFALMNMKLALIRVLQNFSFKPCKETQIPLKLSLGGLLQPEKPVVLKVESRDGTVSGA
Description: as §1, §2, §3

CYP2C9 = biological target: T5, CYP2C9 (Homo sapiens, UniProt P11712); assay: Human liver microsome CYP inhibition assay, CYP2C9; assay type: in vitro ADME
T5 construct: Mixed human liver microsomes (HLM) were purchased from Corning Inc; tissue Corning Inc; host or cells: pooled (mixed) human liver microsomes
T5 sequence (P11712 whole entry): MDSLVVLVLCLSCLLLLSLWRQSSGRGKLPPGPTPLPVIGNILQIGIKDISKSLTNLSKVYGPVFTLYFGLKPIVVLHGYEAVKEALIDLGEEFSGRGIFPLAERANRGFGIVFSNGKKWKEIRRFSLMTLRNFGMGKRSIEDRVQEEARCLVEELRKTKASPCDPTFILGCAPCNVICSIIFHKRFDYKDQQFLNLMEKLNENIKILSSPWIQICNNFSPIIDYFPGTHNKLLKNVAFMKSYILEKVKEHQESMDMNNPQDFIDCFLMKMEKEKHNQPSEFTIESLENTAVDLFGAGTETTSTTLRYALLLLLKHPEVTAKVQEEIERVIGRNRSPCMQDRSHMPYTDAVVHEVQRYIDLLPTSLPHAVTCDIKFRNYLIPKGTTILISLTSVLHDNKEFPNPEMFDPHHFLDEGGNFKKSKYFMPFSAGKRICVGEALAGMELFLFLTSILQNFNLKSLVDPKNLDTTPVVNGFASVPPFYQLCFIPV
Description: as §1, §2, §3

human CYP11B1 = biological target: T6, human CYP11B1 (Homo sapiens, UniProt P15538); assay: In vitro activity assay of monoclonal cells overexpressing human CYP11B1; assay type: cell-based; conditions: G402 cells overexpressing human CYP11B1; 1 µM 11-deoxycortisol, 16 hours; cortisol by LC-MS/MS
T6 construct: expressed in transfected cells; host or cells: human renal leiomyoma G402 cells (monoclonal)
T6 sequence (P15538 25-503): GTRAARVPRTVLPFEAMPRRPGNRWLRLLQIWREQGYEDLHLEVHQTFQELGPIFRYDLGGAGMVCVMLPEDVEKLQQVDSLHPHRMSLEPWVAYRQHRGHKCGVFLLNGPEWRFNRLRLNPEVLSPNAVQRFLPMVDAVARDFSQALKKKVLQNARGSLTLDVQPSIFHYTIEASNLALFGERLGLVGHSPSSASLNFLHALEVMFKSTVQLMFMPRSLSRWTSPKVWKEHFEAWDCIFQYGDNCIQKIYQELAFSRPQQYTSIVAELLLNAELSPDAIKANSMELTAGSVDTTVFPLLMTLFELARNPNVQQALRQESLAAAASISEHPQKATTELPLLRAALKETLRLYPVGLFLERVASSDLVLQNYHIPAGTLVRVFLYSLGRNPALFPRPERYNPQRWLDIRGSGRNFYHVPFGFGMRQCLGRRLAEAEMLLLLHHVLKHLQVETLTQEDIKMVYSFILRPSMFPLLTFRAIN
Description: The human renal leiomyoma G402 cell line overexpressing human CYP11B1 was selected to serve as a compound selectivity screening system.
Day 1: Cells were digested, and human renal leiomyoma G402 cells overexpressing CYP11B1 were resuspended to 1×10^5 cells/mL, with 100 µL seeded into a 96-well plate.
(§4) Day 3: The cell supernatant was collected and added to 200 µL of a methanol solution containing internal standards (internal standards: 35 ng/mL ketoprofen or 7.5 ng/mL carbamazepine or 5 ng/mL diphenhydramine or 10 ng/mL tolbutamide). The mixture was vortexed and centrifuged (4000×g, 4°C, 5 minutes). Then, 100 µL of the supernatant was taken and mixed with 100 µL of pure water.
Ratio = Cortisol peak area/Internal standard peak area [formula] Control activity% = (Ratiotestcompound/RatioDMSO) × 100% [formula]
(§5) "Ratio test compound" represents the Ratio values at different concentrations of the test compound.
(§6) "Ratio DMSO" represents the Ratio value without the addition of the test compound. • X = Log (compound concentration) • Y = Control activity%
The IC50 of the test compound was determined by fitting to a nonlinear regression equation using XLfit 5.5.0. Table 4: Results for in vitro activity assay of monoclonal cells overexpressing human CYP11B1

human CYP11B2 = biological target: T7, human CYP11B2 (Homo sapiens, UniProt P19099); assay: In vitro activity assay of monoclonal cells overexpressing human CYP11B2; assay type: cell-based; conditions: G402 cells overexpressing human CYP11B2; 1 µM 11-deoxycorticosterone, 16 hours; aldosterone by LC-MS/MS
T7 construct: expressed in transfected cells; host or cells: human renal leiomyoma G402 cells (monoclonal)
T7 sequence (P19099 25-503): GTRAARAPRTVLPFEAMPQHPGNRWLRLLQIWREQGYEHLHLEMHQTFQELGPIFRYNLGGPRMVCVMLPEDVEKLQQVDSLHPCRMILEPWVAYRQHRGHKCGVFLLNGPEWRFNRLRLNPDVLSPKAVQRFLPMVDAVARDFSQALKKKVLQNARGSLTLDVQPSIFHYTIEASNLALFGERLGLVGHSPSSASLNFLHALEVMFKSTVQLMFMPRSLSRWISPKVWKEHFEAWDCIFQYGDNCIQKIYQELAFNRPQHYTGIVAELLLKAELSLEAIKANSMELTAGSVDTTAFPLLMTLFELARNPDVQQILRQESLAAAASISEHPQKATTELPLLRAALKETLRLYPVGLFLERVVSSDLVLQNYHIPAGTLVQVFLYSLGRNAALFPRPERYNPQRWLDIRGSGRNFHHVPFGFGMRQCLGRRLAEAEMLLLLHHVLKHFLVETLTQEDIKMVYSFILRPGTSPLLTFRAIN
Description: The human renal leiomyoma G402 cell line overexpressing human CYP11B2 was selected to serve as a compound activity screening system. Table 1: Cell and reagent information
2) Compound details: The test compound was prepared as a 10 µM working concentration using DMSO. 3) Experimental procedure
Day 1: Cells were digested, and human renal leiomyoma G402 cells overexpressing human CYP11B2 were resuspended to 1×10^5 cells/mL, with 100 µL seeded into a 96-well plate.
as §4
Ratio = Aldosterone peak area/Internal standard peak area [formula] Control activity% = (Ratiotestcompound/RatioDMSO) × 100% [formula]
as §5, §6
The IC50 of the test compound was determined by fitting to a nonlinear regression equation using XLfit 5.5.0. Table 3: Results for in vitro activity assay of monoclonal cells overexpressing human CYP11B2

in vitro [1] = conditions: human, plasma
in vitro [2] = conditions: cynomolgus monkey, plasma
in vivo = conditions: rat, po, 2 mg/kg
in vitro [3] = conditions: human, microsomes

Compound: CCC(=O)N[C@@H]1CCCc2c(-c3ccc4c(ccc(=O)n4C)c3)cncc21 (single isomer, unassigned) [Compound 001]
- IC50 (CYP2C19; mixed human liver microsomes, 5-in-1 probe substrate, read-out: Cytochrome P450 isoenzyme half maximal inhibitory concentration IC50 (µM) CYP2C19): > 50 µM
- IC50 (CYP2D6; mixed human liver microsomes, 5-in-1 probe substrate, read-out: Cytochrome P450 isoenzyme half maximal inhibitory concentration IC50 (µM) CYP2D6): > 50 µM
- IC50 (CYP1A2; mixed human liver microsomes, 5-in-1 probe substrate, read-out: Cytochrome P450 isoenzyme half maximal inhibitory concentration IC50 (µM) CYP1A2): > 50 µM
- IC50 (CYP3A4; mixed human liver microsomes, 5-in-1 probe substrate, read-out: Cytochrome P450 isoenzyme half maximal inhibitory concentration IC50 (µM) CYP3A4): > 50 µM
- IC50 (CYP2C9; mixed human liver microsomes, 5-in-1 probe substrate, read-out: Cytochrome P450 isoenzyme half maximal inhibitory concentration IC50 (µM) CYP2C9): > 50 µM
- IC50 (human CYP11B1): 2.47 µM
- IC50 (human CYP11B2): 0.012 µM

Compound: CCC(=O)NC1CCCc2c(-c3cc4ccc(=O)n(C)c4s3)cncc21 (single isomer, unassigned) [Compound 023]
- IC50 (CYP2C19): > 50 µM
- fraction unbound at 4 h, 2 µM (in vitro [1]): 0.304
- IC50 (CYP2D6): > 50 µM
- IC50 (CYP1A2): > 50 µM
- IC50 (CYP3A4): > 50 µM
- IC50 (CYP2C9): > 50 µM
- IC50 (human CYP11B1): 1.74 µM
- IC50 (human CYP11B2): 0.0125 µM
- fraction unbound at 4 h, 2 µM (in vitro [2]): 0.31
- AUC(0-t) at 24 h (in vivo): 44.2 µM·h
- Cmax (in vivo): 6.92 µM
- bioavailability (in vivo): 109%
- half-life (in vivo): 3.6 h
- CLint scaled at 1 µM (in vitro [3]): < 8.6 mL/min/kg

Compound: CCC(=O)NC1CCCc2c(-c3cc4c(s3)N(C)C(=O)CC4)cncc21 (single isomer, unassigned) [Compound 017]
- IC50 (CYP2C19): > 50 µM
- fraction unbound at 4 h, 2 µM (in vitro [1]): 0.173
- IC50 (CYP2D6): > 50 µM
- IC50 (CYP1A2): > 50 µM
- IC50 (CYP3A4): > 50 µM
- IC50 (CYP2C9): 45.1 µM
- IC50 (human CYP11B1): 0.322 µM
- IC50 (human CYP11B2): 0.00209 µM
- fraction unbound at 4 h, 2 µM (in vitro [2]): 0.219
- AUC(0-t) at 24 h (in vivo): 8.13 µM·h
- Cmax (in vivo): 4.17 µM
- bioavailability (in vivo): 115%
- half-life (in vivo): 1.34 h
- CLint scaled at 1 µM (in vitro [3]): < 8.6 mL/min/kg
